{"source": "patent US10532985B2", "about": "“Heterocycle and carbocycle derivatives having TRKA inhibitory activity” (Shionogi & Co., Ltd., priority 2014, dated 2020)"}
{"target": "T1, human TrkA (Homo sapiens, UniProt P04629)", "T1 construct": "purchased Lifetechnologies PV3144", "T1 sequence (P04629 33-796)": "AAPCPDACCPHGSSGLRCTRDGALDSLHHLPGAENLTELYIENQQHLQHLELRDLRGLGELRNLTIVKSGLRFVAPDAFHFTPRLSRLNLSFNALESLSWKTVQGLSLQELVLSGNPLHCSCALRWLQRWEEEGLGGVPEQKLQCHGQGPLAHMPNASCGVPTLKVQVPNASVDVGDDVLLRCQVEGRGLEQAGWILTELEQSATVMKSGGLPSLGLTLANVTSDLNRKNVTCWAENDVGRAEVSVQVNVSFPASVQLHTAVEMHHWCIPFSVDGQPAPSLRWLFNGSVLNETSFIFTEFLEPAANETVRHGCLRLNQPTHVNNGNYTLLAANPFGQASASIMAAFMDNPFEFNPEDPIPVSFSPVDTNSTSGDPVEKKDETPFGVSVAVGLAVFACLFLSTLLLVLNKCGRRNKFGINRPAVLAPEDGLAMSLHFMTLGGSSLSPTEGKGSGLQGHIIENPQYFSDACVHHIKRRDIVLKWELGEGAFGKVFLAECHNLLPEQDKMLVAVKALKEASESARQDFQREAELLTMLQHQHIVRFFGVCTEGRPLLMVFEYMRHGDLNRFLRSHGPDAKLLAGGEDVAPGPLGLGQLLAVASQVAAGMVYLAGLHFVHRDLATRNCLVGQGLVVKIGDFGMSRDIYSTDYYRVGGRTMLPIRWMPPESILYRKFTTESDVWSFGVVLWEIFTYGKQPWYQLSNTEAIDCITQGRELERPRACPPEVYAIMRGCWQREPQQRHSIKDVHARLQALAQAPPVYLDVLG", "experiment": "Test Example 2: Human TrkA Inhibition Assay", "assay_type": "biochemical", "details": "Test Example 2; human TrkA 2.5 nmol/L, ATP 500 μmol/L, 90 min at room temperature; read-out: TrkA inhibitory activity IC50", "description": "(§1) After the incubation for 90 min at room temperature, ten μL of termination buffer (100 mmol/L HEPES, 40 mmol/L ethylenediaminetetraacetic acid (EDTA), 10 mmol/L magnesium chloride, 0.003 vol % Brij-35, 0.004 vol % Tween20, 1 mmol/L DTT and 0.16 vol % Coating Reagent 3) was added in each well to stop the enzyme reaction. Fluorescent intensities (FI) of phosphorylated and non-phosphorylated fluorescent substrates were measured by LabChip EZReader II (Caliper LifeSciences, Inc.) and conversion ratio (CR) was calculated by the following formula-1. The CR in the well applied with DMSO alone was used as a negative control and the CR in the well without applying TrkA was used as a positive control. The inhibitory effect of each compound on TrkA phosphorylation was calculated by the following formula-2. CR (%)=(FI of phosphorylated substrate/(FI of phosphorylated substrate+FI of non-phosphorylated substrate))×100 (Formula-1) Inhibitory effect on TrkA phosphorylation (%)=(1−(CR in compound treated well−CR in positive control)/(CR in negative control−CR in positive control))×100. (Formula-2)", "units": {"IC50": "nM"}}
{"smiles": "COCCN1C[C@@H](NC(=NO)Nc2c(C)c(-c3cnn(C)c3)nn2-c2ccccc2)[C@H](c2ccccc2)C1", "note": "[Compound I-129]", "IC50": 440}
{"smiles": "COCC(CSC)N1C[C@@H](NC(=O)Nc2c(C)c(-c3cnn(C)c3)nn2-c2ccccc2)[C@H](c2ccc(F)c(F)c2)C1", "note": "(stereo partly drawn) [Compound I-130]", "IC50": 460}
{"smiles": "COCCN1C[C@@H](CC(=O)Nc2c(C)c(-c3cnn(C)c3)nn2-c2ccccc2)[C@H](c2ccc(F)c(F)c2)C1", "note": "(racemic) [Compound I-15]", "IC50": 143}
{"target": "T1, human TrkA", "experiment": "Test Example 2: Human TrkA Inhibition Assay", "assay_type": "biochemical", "details": "human TrkA inhibition, Test Example 2; class symbols A/B/C; read-out: IC50_nM", "description": "as §1", "units": {"IC50": "nM"}}
{"smiles": "COCC(CCO)N1C[C@@H](NC(=O)Nc2c(C)c(-c3cnn(C)c3)nn2-c2ccccc2)[C@H](c2ccc(F)c(F)c2)C1", "note": "(stereo partly drawn) [Compound I-105]", "IC50": "< 100"}
{"smiles": "COCCN1C[C@@H](NC(=O)Nc2c(C)c(-c3cnn(C)c3)nn2-c2ccccc2)[C@H](c2cccc(-c3ccc(C#N)cc3)c2)C1", "note": "(racemic) [Compound I-50]", "IC50": "< 100"}
{"smiles": "COCC(C(=O)N(C)C)N1C[C@@H](NC(=O)Nc2c(C)c(-c3cnn(C)c3)nn2-c2ccccc2)[C@H](c2ccc(F)c(F)c2)C1", "note": "(stereo partly drawn) [Compound I-174]", "IC50": "> 1000"}
{"smiles": "COCCN1C[C@@H](NC(=O)Nc2c(C)c(-c3cnn(C)c3)nn2-c2ccccc2)[C@H](c2ccc3nccn3c2)C1", "note": "(racemic) [Compound I-165]", "IC50": "> 1000"}
{"smiles": "Cc1c(-c2cnn(C)c2)nn(-c2ccccc2)c1NC(=O)N[C@@H]1CN(CCS(C)(=O)=O)C[C@H]1c1ccc(F)c(F)c1", "note": "[Compound I-46]", "IC50": "> 1000"}
{"smiles": "COCOC1C[C@@H](NC(=O)Nc2c(C)c(-c3cnn(C)c3)nn2-c2ccccc2)[C@H](c2ccccc2)C1", "note": "(relative stereo) [Compound I-121]", "IC50": "100 to 1000"}
{"smiles": "COCCN1C[C@H](NC(=O)Nc2c(C)c(-c3cnn(C)c3)nn2-c2ccccc2)[C@H](c2ccc(F)c(F)c2)C1", "note": "(racemic) [Compound I-6]", "IC50": "> 1000"}
{"smiles": "Cc1c(-c2cnn(C)c2)nn(-c2ccccc2)c1NC(=O)N[C@@H]1CN(CC(F)(F)F)C(=O)[C@H]1c1ccc(F)c(F)c1", "note": "[Compound I-74]", "IC50": "> 1000"}
{"smiles": "Cc1c(-c2cnn(C)c2)nn(-c2ccccc2)c1NC(=O)N[C@@H]1CN(C2CCOC2)C[C@H]1c1ccc(F)c(F)c1", "note": "(stereo partly drawn) [Compound I-39]", "IC50": "> 1000"}
{"smiles": "COCCN1C[C@@H](NC(=O)Nc2c(C)c(-c3cnn(C)c3)nn2-c2ccccc2)[C@H](c2cccc(C(N)=O)c2)C1", "note": "(racemic) [Compound I-21]", "IC50": "> 1000"}
{"smiles": "Cc1c(-c2cnn(C)c2)nn(-c2ccccc2)c1NC(=O)N[C@@H]1CN(C(=O)OC(C)(C)C)C[C@H]1c1ccccc1", "note": "(racemic) [Compound I-5]", "IC50": "> 1000"}
{"smiles": "COCCN1C[C@@H](NC(=O)Nc2c(C)c(-c3cnn(C)c3)nn2-c2ccccc2)[C@H](c2ccc3oc(=O)[nH]c3c2)C1", "note": "(racemic) [Compound I-149]", "IC50": "> 1000"}
{"smiles": "Cc1c(-c2cnn(C)c2)nn(-c2ccccc2)c1NC(=O)N[C@@H]1CN(C2CCC2)C[C@H]1c1ccc(F)c(F)c1", "note": "[Compound I-125]", "IC50": "100 to 1000"}
{"smiles": "COCC(CN1CCOCC1)N1C[C@@H](NC(=O)Nc2c(C)c(-c3cnn(C)c3)nn2-c2ccccc2)[C@H](c2ccc(F)c(F)c2)C1", "note": "(stereo partly drawn) [Compound I-158]", "IC50": "> 1000"}
{"smiles": "COCC(CNS(C)(=O)=O)N1C[C@@H](NC(=O)Nc2c(C)c(-c3cnn(C)c3)nn2-c2ccccc2)[C@H](c2ccc(F)c(F)c2)C1", "note": "(stereo partly drawn) [Compound I-140]", "IC50": "100 to 1000"}
{"smiles": "Cc1c(-c2cnn(C)c2)nn(-c2ccccc2)c1NC(=O)N[C@@H]1CN(Cc2ccon2)C[C@H]1c1ccc(F)c(F)c1", "note": "[Compound I-98]", "IC50": "< 100"}
{"smiles": "CNCC(COC)N1C[C@@H](NC(=O)Nc2c(C)c(-c3cnn(C)c3)nn2-c2ccccc2)[C@H](c2ccc(F)c(F)c2)C1", "note": "(stereo partly drawn) [Compound I-138]", "IC50": "100 to 1000"}
{"smiles": "COCCN1C[C@@H](NC(=O)Nc2c(C)c(-c3cnn(C)c3)nn2-c2ccccc2)[C@H](c2cccc(C(=O)OC)c2)C1", "note": "(racemic) [Compound I-19]", "IC50": "> 1000"}
{"smiles": "COCCC(=O)N1C[C@@H](NC(=O)Nc2c(C)c(-c3cnn(C)c3)nn2-c2ccccc2)[C@H](c2ccc(F)c(F)c2)C1", "note": "[Compound I-27]", "IC50": "> 1000"}
{"smiles": "COCCN1C[C@@H](NC(=O)N(C)c2c(C)c(-c3cnn(C)c3)nn2-c2ccccc2)[C@H](c2ccc(F)c(F)c2)C1", "note": "[Compound I-32]", "IC50": "> 1000"}
{"smiles": "COCCN1C[C@@H](NC(=O)Nc2c(C)c(-c3cnn(C)c3)nn2-c2ccccc2)[C@H](c2ccc3cccnc3c2)C1", "note": "(racemic) [Compound I-150]", "IC50": "> 1000"}
{"smiles": "COCC(CC(=O)OC)N1C[C@@H](NC(=O)Nc2c(C)c(-c3cnn(C)c3)nn2-c2ccccc2)[C@H](c2ccc(F)c(F)c2)C1", "note": "(stereo partly drawn) [Compound I-117]", "IC50": "100 to 1000"}
{"smiles": "Cc1c(-c2cnn(C)c2)nn(-c2ccccc2)c1NC(=O)NC1CCCCC1Cc1ccc(Cl)cc1", "note": "(stereo not drawn) [Compound I-14]", "IC50": "> 1000"}
{"smiles": "CCOC(=O)C=C1C[C@@H](NC(=O)Nc2c(C)c(-c3cnn(C)c3)nn2-c2ccccc2)[C@H](c2ccccc2)C1", "note": "[Compound I-126]", "IC50": "100 to 1000"}
{"smiles": "Cc1c(-c2cnn(C)c2)nn(-c2ccccc2)c1NC(=O)N[C@@H]1CC2(CC(O)C2)C[C@H]1c1ccccc1", "note": "(mixture of isomers) [Compound I-172]", "IC50": "> 1000"}
{"smiles": "Cc1c(-c2cnn(C)c2)nn(-c2ccccc2)c1NC(=O)N[C@@H]1CN(C=O)C[C@H]1c1ccc(F)c(F)c1", "note": "[Compound I-35]", "IC50": "> 1000"}
{"smiles": "Cc1c(-c2cnn(C)c2)nn(-c2ccccc2)c1NC(=O)N[C@@H]1C[C@@H](C)N[C@H]1c1ccc(F)c(F)c1", "note": "(racemic) [Compound I-77]", "IC50": "> 1000"}
{"smiles": "COCCN1C[C@@H](NC(=O)Nc2c(C)c(-c3cnn(C)c3)nn2-c2ccccc2)[C@H](c2cccc(-c3cccnc3)c2)C1", "note": "(racemic) [Compound I-56]", "IC50": "> 1000"}
{"smiles": "Cc1c(-c2cnn(C)c2)nn(-c2ccccc2)c1NC(=O)N[C@@H]1CN(CCOc2ccccc2)C[C@H]1c1ccc(F)c(F)c1", "note": "[Compound I-23]", "IC50": "100 to 1000"}
{"smiles": "Cc1c(-c2cnn(C)c2)nn(-c2ccccc2)c1NC(=O)N[C@@H]1CN(Cc2ccccc2)C[C@H]1C1CCCCC1", "note": "(racemic) [Compound I-18]", "IC50": "> 1000"}
{"smiles": "COCCN1C[C@@H](NC(=O)Nc2c(C)c(-c3cnn(C)c3)nn2-c2ccccc2)[C@H](c2ccc(C(=O)OC)cc2)C1", "note": "(racemic) [Compound I-20]", "IC50": "100 to 1000"}
{"smiles": "COCCN1C[C@@H](NC(=O)Nc2c(C)c(OCC(C)(C)O)nn2-c2ccccc2)[C@H](C2CCCCC2)C1", "note": "(racemic) [Compound I-10]", "IC50": "> 1000"}
{"smiles": "COCOCCN1C[C@@H](NC(=O)Nc2c(C)c(-c3cnn(C)c3)nn2-c2ccccc2)[C@H](c2ccc(F)c(F)c2)C1", "note": "[Compound I-80]", "IC50": "100 to 1000"}
{"smiles": "Cc1c(-c2cnn(C)c2)nn(-c2ccccc2)c1NC(=O)N[C@@H]1CN(CCCc2ccccc2)C[C@H]1c1ccc(F)c(F)c1", "note": "[I 63]", "IC50": "> 1000"}
{"smiles": "COCCN1C[C@@H](NC(=O)Nc2c(C)c(-c3cnn(C)c3)nn2-c2ccccc2)[C@H](c2cccc(/C=C/c3ccccc3)c2)C1", "note": "(racemic) [Compound I-49]", "IC50": "< 100"}
{"smiles": "Cc1c(-c2cnn(C)c2)nn(-c2ccccc2)c1NC(=O)N[C@@H]1CN(C2CCCC2)C[C@H]1c1ccc(F)c(F)c1", "note": "[Compound I-166]", "IC50": "> 1000"}
{"smiles": "COCCN1C[C@@H](NC(=O)Nc2c(C)c(-c3cnn(C)c3)nn2-c2ccccc2)[C@H](c2cccc(-c3ccc(C#N)s3)c2)C1", "note": "(racemic) [Compound I-53]", "IC50": "> 1000"}
{"smiles": "COCCN1C[C@@H](NC(=O)Nc2c(C)c(-c3cnn(C)c3)nn2-c2ccccc2)[C@H](c2ccc3c(c2)NCCO3)C1", "note": "(racemic) [Compound I-162]", "IC50": "> 1000"}
{"smiles": "COCC1(O)C[C@@H](NC(=O)Nc2c(C)c(-c3cnn(C)c3)nn2-c2ccccc2)[C@H](c2ccccc2)C1", "note": "(stereo partly drawn) [Compound I-164]", "IC50": "> 1000"}
